Laboratory results taken from US20260209214A1, “LSD1 MODULATORS” (RECURSION PHARMACEUTICALS, INC., priority 2022, published 2026).

Biological target: Recombinant human LSD1 (Homo sapiens, UniProt O60341)
Test: LSD1 inhibition assay (HTRF LSD1 Histone H3K4 mono-demethylation assay, me1->me0)
Format: biochemical
Conditions: 20 nM recombinant human LSD1, 95 nM H3K4(me1) biotinylated peptide, 15 min preincubation, 60 min at 25° C., read-out: LSD1 inhibition IC50 (nM range)
Summary of the method: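 Recombinant human LSD1 (20 nM) pre-incubated 15 min with 10 semi-log compound doses, then 95 nM biotinylated H3K4me1 peptide for 60 min at 25 °C in pH 8.5 Tris/NaCl buffer with 10 μM FAD, 1 mM DTT. HTRF me0-antibody read after 90 min; IC50 from 4-parameter fit.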

SMILES | IC50 [nM]
N#Cc1ccc(-c2cc(CC3CNCCO3)ccc2NCc2cnn3c2CCCC3)cc1F (stereo not shown) [Example 117, 3-fluoro-5′-[(morpholin-2-yl)methyl]-2′-[{{4H,5H,6H,7H-pyrazolo[1,5-a]pyridin-3-yl}methyl)amino]-[1,1′-biphenyl]-4-carbonitrile] | > 1000
CC(C)N(C)c1ccc(CN2CCN(C)CC2)cc1-c1ccc(C#N)c(F)c1 [Example 295, 3-fluoro-2'-[methyl(propan-2-yl)amino]-5'-[(4-methylpiperazin-1-yl)methyl]-[1,1'-biphenyl]-4-carbonitrile] | > 1000
COC1CCN(c2ccc(CC3CNCCO3)cc2-c2ccc(C#N)c(F)c2)CC1 (stereo not shown) [Example 52, 3-fluoro-2′-(4-methoxypiperidin-1-yl)-5′-[(morpholin-2-yl)methyl]-[1,1′-biphenyl]-4-carbonitrile] | 100 to 1000
N#Cc1ccc(-c2cccc(CN3[C@@H]4CC[C@H]3[C@H](N)C4)c2C2CC2)cc1F (racemic) [Example 319, 3'-{[(1S,2R,4R)-2-amino-7-azabicyclo[2.2.1]heptan-7-yl]methyl}-2'-cyclopropyl-3-fluoro-[1,1'-biphenyl]-4-carbonitrile] | 25 to 100
N#Cc1ccc(-c2cccc(CN3CC4CCC3CN4)c2Cl)cc1F (stereo not shown) [Example 283, 2'-chloro-3'-({2,5-diazabicyclo[2.2.2]octan-2-yl}methyl)-3-fluoro-[1,1'-biphenyl]-4-carbonitrile] | 100 to 1000
N#Cc1ccc(-c2cccc(CN3[C@@H]4CC[C@H]3[C@@H](N)C4)c2OCC2CC2)cc1F (racemic) [Example 245, 3'-{[(1S,2S,4R)-2-amino-7-azabicyclo[2.2.1]heptan-7-yl]methyl}-2'-(cyclopropylmethoxy)-3-fluoro-[1,1'-biphenyl]-4-carbonitrile] | 25 to 100
CCc1cc(CC2CNCCO2)cc(-c2ccc(C#N)cc2)c1Cl (stereo not shown) [Example 161, 2′-chloro-3′-ethyl-5′-[(morpholin-2-yl)methyl]-[1,1′-biphenyl]-4-carbonitrile] | > 1000
COCc1c(CN2[C@@H]3CC[C@H]2[C@@H](N)C3)cccc1-c1ccc(C#N)c(F)c1 (racemic) [Example 320, 3'-{[(1S,2S,4R)-2-amino-7-azabicyclo[2.2.1]heptan-7-yl]methyl}-3-fluoro-2'-(methoxymethyl)-[1,1'-biphenyl]-4-carbonitrile] | 100 to 1000
N#Cc1ccc(-c2cc(C[C@@H]3CN4CCC[C@H]4CO3)ccc2N2CCC2)cc1F [Example 131, 5′-{[(3R,8aS)-hexahydro-1H-pyrrolo[2,1-c][1,4]oxazin-3-yl]methyl}-2′-(azetidin-1-yl)-3-fluoro-[1,1′-biphenyl]-4-carbonitrile] | > 1000
N#Cc1ccc(-c2cccc(CC3CNCCO3)c2C2CC2)cc1F (stereo not shown) [Example 42, 2′-cyclopropyl-3-fluoro-3′-[(morpholin-2-yl)methyl]-[1,1′-biphenyl]-4-carbonitrile] | 100 to 1000
COc1ccc(-c2ccc(CN3[C@@H]4CC[C@H]3[C@@H](N)C4)cc2-c2ccc(C#N)c(F)c2)cn1 (racemic) [Example 230, 5'-{[(1S,2S,4R)-2-amino-7-azabicyclo[2.2.1]heptan-7-yl]methyl}-3-fluoro-2'-(6-methoxypyridin-3-yl)-[1,1'-biphenyl]-4-carbonitrile] | 10 to 25
N#Cc1ccc(-c2cc(CC3CNCCO3)ccc2N2CCC3(CCCO3)CC2)cc1F (stereo not shown) [Example 78, 3-fluoro-5′-[(morpholin-2-yl)methyl]-2′-{1-oxa-8-azaspiro[4.5]decan-8-yl}-[1,1′-biphenyl]-4-carbonitrile] | 100 to 1000
CC(C)Oc1ccc(CN2[C@@H]3CC[C@H]2[C@@H](N)C3)cc1-c1ccc(C#N)c(F)c1 (racemic) [Example 250, 5'-{[(1S,2S,4R)-2-amino-7-azabicyclo[2.2.1]heptan-7-yl]methyl}-3-fluoro-2'-(propan-2-yloxy)-[1,1'-biphenyl]-4-carbonitrile] | 10 to 25
CNC1CCN(c2cccc(-c3ccc(C#N)c(F)c3)c2C2CC2)CC1 [Example 125, 2'-cyclopropyl-3-fluoro-3'-[4-(methylamino)piperidin-1-yl]-[1,1'-biphenyl]-4-carbonitrile] | 100 to 1000
CC1(C)CN(Cc2cccc(-c3ccc(C#N)c(F)c3)c2C2CC2)CC1N (stereo not shown) [Example 278, 3'-[(4-amino-3,3-dimethylpyrrolidin-1-yl)methyl]-2'-cyclopropyl-3-fluoro-[1,1'-biphenyl]-4-carbonitrile] | 100 to 1000
N#Cc1ccc(-c2cccc(CN3CC4CC4(N)C3)c2Cl)cc1F (stereo not shown) [Example 287, 3'-({1-amino-3-azabicyclo[3.1.0]hexan-3-yl}methyl)-2'-chloro-3-fluoro-[1,1'-biphenyl]-4-carbonitrile] | > 1000
N#Cc1ccc(-c2cccc(CN3[C@@H]4CC[C@H]3[C@@H](N)C4)c2OC(F)F)cc1F (racemic) [Example 179, 3'-{[(1S,2S,4R)-2-amino-7-azabicyclo[2.2.1]heptan-7-yl]methyl}-2'-(difluoromethoxy)-3-fluoro-[1,1'-biphenyl]-4-carbonitrile] | 10 to 25
N#Cc1ccc(-c2cccc(CN3[C@H]4CC[C@H](N)[C@@H]3CC4)c2Cl)cc1F (racemic) [Example 282, 3'-{[(1S,2S,5S)-2-amino-8-azabicyclo[3.2.1]octan-8-yl]methyl}-2'-chloro-3-fluoro-[1,1'-biphenyl]-4-carbonitrile] | 100 to 1000
C[C@@H]1CC[C@H](N)CN1Cc1cccc(-c2ccc(C#N)c(F)c2)c1Cl [Example 330, 3'-{[(2R,5S)-5-amino-2-methylpiperidin-1-yl]methyl}-2'-chloro-3-fluoro-[1,1'-biphenyl]-4-carbonitrile] | > 1000

The next lines start with the values.

IC50 [nM] | SMILES
25 to 100 | CN(C)C1CCN(c2cccc(-c3ccc(C#N)c(F)c3)c2-c2cnco2)CC1 [Example 95, 3'-[4-(dimethylamino)piperidin-1-yl]-3-fluoro-2'-(1,3-oxazol-5-yl)-[1,1'-biphenyl]-4-carbonitrile]
100 to 1000 | CN1C[C@@H]2C[C@H]1CN2Cc1cc(-c2ccc(C#N)c(F)c2)cc(N2CCCC2)c1 (stereo in doubt) [Example 300, 2-fluoro-4-[3-[[(1S,4S)-5-methyl-2,5-diazabicyclo[2.2.1]heptan-2-yl]methyl]-5-pyrrolidin-1-yl-phenyl]benzonitrile]
100 to 1000 | N#Cc1ccc(-c2cc(CC3CNCCO3)ccc2N2CC(c3cccnc3)C2)cc1F (stereo not shown) [Example 107, 3-fluoro-5′-[(morpholin-2-yl)methyl]-2′-[3-(pyridin-3-yl)azetidin-1-yl]-[1,1′-biphenyl]-4-carbonitrile]
25 to 100 | N#Cc1ccc(-c2cccc(CC3CNCCO3)c2-c2cccnc2)cc1F (stereo not shown) [Example 32, 3-fluoro-3′-[(morpholin-2-yl)methyl]-2′-(pyridin-3-yl)-[1,1′-biphenyl]-4-carbonitrile]
100 to 1000 | CC(C)N1CCOC(Cc2ccc(N3CCC3)c(-c3ccc(C#N)c(F)c3)c2)C1 (stereo not shown) [Example 163, 2′-(azetidin-1-yl)-3-fluoro-5′-{[4-(propan-2-yl)morpholin-2-yl]methyl}-[1,1′-biphenyl]-4-carbonitrile]
10 to 25 | CNC1CCN(c2cccc(-c3ccc(C#N)c(F)c3)c2-c2ccns2)CC1 [Example 81, 3-fluoro-3'-[4-(methylamino)piperidin-1-yl]-2'-(1,2-thiazol-5-yl)-[1,1'-biphenyl]-4-carbonitrile]
25 to 100 | CC1(N)CCN(Cc2cccc(-c3ccc(C#N)c(F)c3)c2C2CC2)CC1 [Example 205, 3'-[(4-amino-4-methylpiperidin-1-yl)methyl]-2'-cyclopropyl-3-fluoro-[1,1'-biphenyl]-4-carbonitrile]
100 to 1000 | N#Cc1ccc(-c2cc(CC3CNCCO3)ccc2COc2cccnc2)cc1F (stereo not shown) [Example 106, 3-fluoro-5′-[(morpholin-2-yl)methyl]-2′-[(pyridin-3-yloxy)methyl]-[1,1′-biphenyl]-4-carbonitrile]
< 10 | N#Cc1ccc(-c2ccc(F)c(CN3C[C@]4(N)CC[C@H]3C4)c2-c2ccns2)cc1F [Example 185, 3'-{[(1S,4S)-4-amino-2-azabicyclo[2.2.1]heptan-2-yl]methyl}-3,4'-difluoro-2'-(1,2-thiazol-5-yl)-[1,1'-biphenyl]-4-carbonitrile]
25 to 100 | N#Cc1ccc(-c2cccc(CN3C[C@]4(N)CC[C@H]3C4)c2Cl)cc1F [Example 196, 3'-{[(1S,4S)-4-amino-2-azabicyclo[2.2.1]heptan-2-yl]methyl}-2'-chloro-3-fluoro-[1,1'-biphenyl]-4-carbonitrile]
< 10 | CC1(C)CN(Cc2cccc(-c3ccc(C#N)c(F)c3)c2-c2ccns2)C[C@H]1N (single isomer, unassigned) [Example 194]
25 to 100 | N#Cc1ccc(-c2cc(CC3CNCCO3)ccc2N2CCC(C3CCOC3)CC2)cc1F (stereo not shown) [Example 100, 3-fluoro-5′-[(morpholin-2-yl)methyl]-2′-[4-(oxolan-3-yl)piperidin-1-yl]-[1,1′-biphenyl]-4-carbonitrile]
10 to 25 | N#Cc1ccc(-c2cccc(CN3C[C@]4(N)CC[C@H]3C4)c2-c2scnc2Cl)cc1F [Example 188, 3'-{[(1S,4S)-4-amino-2-azabicyclo[2.2.1]heptan-2-yl]methyl}-2'-(4-chloro-1,3-thiazol-5-yl)-3-fluoro-[1,1'-biphenyl]-4-carbonitrile]
10 to 25 | N#Cc1ccc(-c2cccc(CN3C[C@]4(N)CC[C@H]3C4)c2N2CCC2)cc1F [Example 172, N[C@@]12CC[C@@H](C1)N(Cc3cccc(c4ccc(C#N)c(F)c4)c3N5CCC5)C2]
25 to 100 | Cc1cc(CN2C[C@@H]3C[C@H]2CN3)c(Cl)c(-c2ccc(C#N)c(F)c2)c1 [Example 299, 2′-chloro-3'-{[(1S,4S)-2,5-diazabicyclo[2.2.1]heptan-2-yl]methyl}-3-fluoro-5'-methyl-[1,1'-biphenyl]-4-carbonitrile]
